US9162992B2, “Compounds and compositions for treatment of breathing control disorders or diseases” (GALLEON PHARMACEUTICALS, INC., priority 2010, dated 2015)

Experiments:
[1] = system: morphine-induced respiratory depression; assay: Effects of morphine and compound on arterial blood gases in the rat; assay type: in vivo; conditions: for PaCO2 (% reversal) / PaO2 (% reversal) / SaO2 (% reversal) / pH (% reversal): morphine 10 mg/kg
Description: Rats with pre-cannulated jugular vein and femoral arterial catheters (for administering drugs and obtaining blood samples respectively) were obtained from Harlan laboratories and kept at the animal facility at Galleon Pharmaceuticals until the experimental procedures. Each animal was dosed with morphine sulfate (10 mg/kg), dissolved in saline at a concentration of 10 mg/mL, via injection into the jugular vein over a period of 20 seconds with a 20 second flush of 0.9% NaCl saline. Prior to morphine administration, two 250 μL samples of arterial blood were aspirated from the femoral artery into a pre-heparinized syringe. The samples were analyzed on Radiometer's ABL Flex 800, where pO2, pCO2, pH, SaO2 and other parameters were recorded. Aspirated volumes of arterial blood were replaced by room temperature sterile saline (˜300 μL) slowly flushed back into the femoral arterial catheter of the rodent to prevent hypovolemia. Morphine was then administered and 2 minutes later another blood sample was taken.
The infusion started at t=15 minutes and ended at t=35 minutes. Arterial blood gas analysis occurred at time points t=12, 18, 25, 35, 40, 45, and 50 minutes.

[2] = molecular target: T1, human KCNK9/TASK-3 (Homo sapiens, UniProt Q9NPC2); assay: Thallium flux through human TASK-3 (KCNK9-HEK cells); assay type: cell-based; conditions: Tl+ flux; 3 nM to 30 μM; read-out: hTASK-3 IC50
T1 construct: expressed in transfected cells; host or cells: HEK cells (tetracycline-inducible)
Description: CHO cells expressing recombinant tetracycline-inducible rat KCNK3/TASK-1 (KCNK3-CHO cells) were plated in poly-D-lysine coated 384-well plates at a density of 6,000 cells/well (50 μl/well of 120,000 cells/mL) and allowed to incubate for 72 hrs in the presence of 5% CO2 and 1 μg/mL tetracycline at 30° C. HEK cells expressing recombinant tetracycline-inducible human KCNK9/TASK-3 (KCNK9-HEK cells) were plated at a density of 15,000 cells per well (50 μl/well, 300,000 cells/mL) and incubated overnight at 37° C. and 5% CO2 in the presence of 1 μg/mL tetracycline.
Drug plates were generated from 10 mM 100% DMSO mother plates. Compounds were transferred to 384-well drug plates and titrated with sequential 1:3 dilutions in 100% DMSO for a total of 9 dilutions. A dilution plate is made by taking 2.4 μl from the mother plate and adding to […] of assay buffer for a 12% DMSO dilution plate. From this dilution plate, a final daughter plate is generated by taking 1 μA of the dilution plate and adding to 40 μA of assay buffer for a final DMSO concentration of 0.3%. Each compound was evaluated in duplicate and the concentration range evaluated was 3 nM to 30 μM.
When thallium was added to extracellular solution with a stimulus to open channels, Tl^+ flowed down its concentration gradient into the cells and channel activity was detected with an indicator dye, FluxOR™, that increased in cytosolic fluorescence. The FluxOR™ indicator dye was loaded into cells as a membrane permeable acetoxymethyl ester. On the day of each assay, FluxOR™ assay buffer was made fresh from Hank's Balanced Saline Solution (HBSS) buffered with 20 mM HEPES and pH adjusted to 7.4 with NaOH. Dye loading solution was prepared per manufacturer's instructions, and 25 μl of dye solution applied to each well with a multidropper after plating medium was removed manually from cells. Dye was allowed to load for 90 minutes at room temperature in the dark.
After the 90 min dye loading incubation and subsequent manual dye removal, 24 μl of the drug daughter plate was transfer to cell plates by a cybi-well system and then incubated at room temperature for 20 minutes to allow for equilibration within wells. Stimulation buffer was prepared from 5× chloride-free buffer, thallium, and potassium sulfate containing 5 times the desired final assay concentration of 10 mM K^+ 2.8 mM Tl^+. Cell plates were then transferred to an FDSS 6000 kinetic imaging plate reader (Hamamatsu). Fluorescence at 525 nm (excitation 488 nm) was measured for 10 seconds at 1 Hz to establish baseline for the entire plate. After baseline was established, 6 μl/well of stimulation buffer was added and fluorescence signal recorded for another 140 seconds.
From the fluorescence signals in the absence and presence of Galleon compounds, Inhibitory concentration curves were plotted and IC50 values were estimated using a curve fitting algorithm.

T1 sequence (Q9NPC2 whole entry): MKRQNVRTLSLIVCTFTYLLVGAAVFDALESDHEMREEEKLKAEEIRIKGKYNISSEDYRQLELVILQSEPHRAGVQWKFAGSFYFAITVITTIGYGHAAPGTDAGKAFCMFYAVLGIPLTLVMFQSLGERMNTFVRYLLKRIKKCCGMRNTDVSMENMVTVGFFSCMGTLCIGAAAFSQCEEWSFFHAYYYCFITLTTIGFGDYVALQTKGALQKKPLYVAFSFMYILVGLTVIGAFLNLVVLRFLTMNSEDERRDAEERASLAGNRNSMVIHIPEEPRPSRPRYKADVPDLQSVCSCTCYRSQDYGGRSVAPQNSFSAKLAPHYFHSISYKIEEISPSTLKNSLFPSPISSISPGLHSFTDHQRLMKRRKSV

With CCCNc1nc(NCCC)nc(N(C)OC)n1.O=S(=O)(O)O [XXXVI, N-(4,6-Bis-n-propylamino-[1,3,5]triazin-2-yl)-N,O-dimethyl-hydroxylamine hydrogen sulfate] the “arterial blood gases, reversal of opioid-induced respiratory depression” value ([1]; infusion 0.1, 0.3 and 1.0 mg/kg/min, vs vehicle) was “significantly reverses opioid-induced respiratory depression”, the “PaCO2 (% reversal)” value ([1]; infusion 0.03 mg/kg/min) was 18 % reversal and the “PaO2 (% reversal)” value ([1]; infusion 0.03 mg/kg/min) was −2.0 % reversal. For the same compound, the “SaO2 (% reversal)” value ([1]; infusion 0.03 mg/kg/min) was 42 % reversal, the “pH (% reversal)” value ([1]; infusion 0.03 mg/kg/min) was 20 % reversal and the “PaCO2 (% reversal)” value ([1]; infusion 0.1 mg/kg/min) was 47 % reversal. The “PaO2 (% reversal)” value ([1]; infusion 0.1 mg/kg/min) was 16 % reversal, the “SaO2 (% reversal)” value ([1]; infusion 0.1 mg/kg/min) was 51 % reversal and the “pH (% reversal)” value ([1]; infusion 0.1 mg/kg/min) was 37 % reversal. For the same compound, the “PaCO2 (% reversal)” value ([1]; infusion 0.3 mg/kg/min) was 72 % reversal, the “PaO2 (% reversal)” value ([1]; infusion 0.3 mg/kg/min) was −16 % reversal and the “SaO2 (% reversal)” value ([1]; infusion 0.3 mg/kg/min) was 43 % reversal. The “pH (% reversal)” value ([1]; infusion 0.3 mg/kg/min) was 55 % reversal, the “PaCO2 (% reversal)” value ([1]; infusion 1 mg/kg/min) was 94 % reversal and the “PaO2 (% reversal)” value ([1]; infusion 1 mg/kg/min) was 26 % reversal. The “SaO2 (% reversal)” value ([1]; infusion 1 mg/kg/min) was 62 % reversal, the “pH (% reversal)” value ([1]; infusion 1 mg/kg/min) was 60 % reversal and the IC50 [2] was > 30 µM.
